This is an account of results in patent publication US20240246918A1, “COMPOUNDS AND COMPOSITIONS AS EIF4E INHIBITORS AND THE USES THEREOF” (Ribometrix, Inc., priority 2022, published 2024).

The target in one test is T1, human eIF4E protein (Homo sapiens, UniProt P06730).
T1 construct: purchased Novus NBP-45314
Put plainly: Biochemical competitive binding assay (TR-FRET competition, EDA-m7GDP-ATTO-647N probe). Particulars: read-out: hEIF4E TR-FRET IC50. In a few lines: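 IC50 values come from 4-parameter fits of the normalized 665/620 nm TR-FRET ratio. Compound was first incubated 15 min with 4 nM recombinant His-eIF4E bound to 2.5 nM Eu-anti-His antibody, then 15 min with 5 nM m7GDP-ATTO-647N tracer, in pH 7.5 HEPES buffer with 100 mM KCl, Tween-20 and BSA.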

Test [1] has as its system COLO 205 colorectal tumor cells. Put plainly: Tumor cell viability inhibition assay (CellTiter-Glo 2.0, 72 hours). It is filed as cell-based. Conditions: COLO 205 cell viability. In a few lines:
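IC50 derived by 4-parameter fitting after normalizing luminescence to DMSO and max-inhibition wells. Compounds tested as 11 concentrations in 4-fold steps on COLO 205 cells seeded at 1500 per well in RPMI-1640/10% FBS; ATP content measured with CellTiter-Glo 2.0 after 72 h.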
(In general: ATP-based viability assays read luminescence as a measure of living cells.)

T1 sequence (P06730 whole entry): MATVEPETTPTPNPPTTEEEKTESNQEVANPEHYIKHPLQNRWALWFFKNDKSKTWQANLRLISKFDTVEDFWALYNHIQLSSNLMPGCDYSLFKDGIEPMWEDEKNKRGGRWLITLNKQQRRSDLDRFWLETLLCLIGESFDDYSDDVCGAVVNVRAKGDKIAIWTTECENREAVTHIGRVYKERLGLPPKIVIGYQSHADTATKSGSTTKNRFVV

As a reminder, the IC50 is the midpoint of a concentration-inhibition curve. As for `Cc1cc(-c2cc(Cl)ccc2OCCn2c(C)nc3c(c2=O)CC(N2CCC4(CN(CC(F)(F)F)CC(F)(F)C4)C2)CC3)c2scc(C(=O)O)c2n1` (single isomer, unassigned) [Compound 512], the IC50 at human eIF4E protein is less than 0.1 µM; in test [1], less than 5 µM.

For the molecule `Cc1cc(-c2cc(Cl)ccc2OCCn2c(C)nc3c(c2=O)C[C@H](N2CCC[C@@]4(CN(CC(F)(F)F)CC4(F)F)C2)CC3)c2scc(C(=O)O)c2n1` (single isomer, unassigned) [Compound 513], the half-maximal inhibitory concentration (IC50) is less than 0.1 µM at human eIF4E protein and less than 5 µM in test [1] (Homo sapiens, COLO 205, 72 h).

Consider `Cc1cc(-c2cc(Cl)ccc2OCCn2c(C)nc3c(c2=O)C[C@@H](N2CCC[C@@]4(CN(CC(F)(F)F)CC4(F)F)C2)CC3)c2scc(C(=O)O)c2n1` (single isomer, unassigned) [Compound 514], for which the IC50 was 0.5 to 5 µM on human eIF4E protein and greater than 20 µM in test [1] (Homo sapiens, COLO 205, 72 h).

For the molecule `Cc1cc(-c2cc(Cl)ccc2OCCn2c(C)nc3c(c2=O)CC(C)(N2CCC(OC(F)(F)F)CC2)CC3)c2scc(C(=O)O)c2n1` (single isomer, unassigned) [Compound 515], the IC50 on human eIF4E protein was less than 0.1 µM; in test [1] (Homo sapiens, COLO 205, 72 h), less than 5 µM.

Turning to `Cc1cc(-c2cc(Cl)ccc2OCCn2c(C)nc3c(c2=O)CC(C)(N2CCC(OC(F)(F)F)CC2)CC3)c2scc(C(=O)O)c2n1` (single isomer, unassigned) [Compound 516], the concentration for half-maximal inhibition (IC50) at human eIF4E protein is less than 0.1 µM; in test [1], less than 5 µM.

For the molecule `Cc1cc(-c2cc(Cl)ccc2OCCn2c(C)nc3c(c2=O)CC(N2CCC4(CC2)CN(CC(F)(F)F)CCO4)CC3)c2scc(C(=O)O)c2n1` (single isomer, unassigned) [Compound 517], the half-maximal inhibitory concentration (IC50) was less than 0.1 µM at human eIF4E protein and less than 5 µM in test [1] (Homo sapiens, COLO 205, 72 h).

`Cc1cc(-c2cc(Cl)ccc2OCCn2c(C)nc3c(c2=O)CC(N2CCC4(CC2)CN(CC(F)(F)F)CCO4)CC3)c2scc(C(=O)O)c2n1` (single isomer, unassigned) [Compound 518]: the IC50 on human eIF4E protein is less than 0.1 µM; in test [1], less than 5 µM.

Turning to `CO[C@@H]1CCN([C@@H]2CCc3nc(C)n(CCOc4ccc(Cl)cc4-c4cc(C)nc5c(C(=O)O)csc45)c(=O)c3C2)CC12CC2` (single isomer, unassigned) [Compound 519], the IC50 on human eIF4E protein is less than 0.1 µM; in test [1] (Homo sapiens, COLO 205, 72 h), greater than 20 µM.

In the case of `CO[C@H]1CCN([C@@H]2CCc3nc(C)n(CCOc4ccc(Cl)cc4-c4cc(C)nc5c(C(=O)O)csc45)c(=O)c3C2)CC12CC2` (single isomer, unassigned) [Compound 520], the IC50 is less than 0.1 µM at human eIF4E protein and less than 5 µM in test [1] (Homo sapiens, COLO 205, 72 h).

In the case of `CO[C@@H]1CCN([C@H]2CCc3nc(C)n(CCOc4ccc(Cl)cc4-c4cc(C)nc5c(C(=O)O)csc45)c(=O)c3C2)CC12CC2` (single isomer, unassigned) [Compound 521], the 50% inhibitory concentration (IC50) was less than 0.1 µM at human eIF4E protein and 5 to 20 µM in test [1] (Homo sapiens, COLO 205, 72 h).

For `CO[C@H]1CCN([C@H]2CCc3nc(C)n(CCOc4ccc(Cl)cc4-c4cc(C)nc5c(C(=O)O)csc45)c(=O)c3C2)CC12CC2` (single isomer, unassigned) [Compound 522], the IC50 on human eIF4E protein is less than 0.1 µM; in test [1] (Homo sapiens, COLO 205, 72 h), less than 5 µM.

For `Cc1cc(-c2cc(Cl)ccc2OCCn2c(C)nc3c(c2=O)C[C@H](N2CCO[C@@H](CC(F)(F)F)C2)CC3)c2scc(C(=O)O)c2n1` (single isomer, unassigned) [Compound 523], the 50% inhibitory concentration (IC50) on human eIF4E protein was less than 0.1 µM; in test [1] (Homo sapiens, COLO 205, 72 h), less than 5 µM.

`Cc1cc(-c2cc(Cl)ccc2OCCn2c(C)nc3c(c2=O)C[C@@H](N2CCO[C@@H](CC(F)(F)F)C2)CC3)c2scc(C(=O)O)c2n1` (single isomer, unassigned) [Compound 524]: the IC50 on human eIF4E protein was less than 0.1 µM; in test [1] (Homo sapiens, COLO 205, 72 h), less than 5 µM.

In the case of `Cc1cc(-c2cc(Cl)ccc2OCCn2c(C)nc3c(c2=O)C[C@H](N2CCO[C@H](CC(F)(F)F)C2)CC3)c2scc(C(=O)O)c2n1` (single isomer, unassigned) [Compound 525], the IC50 at human eIF4E protein was less than 0.1 µM; in test [1] (Homo sapiens, COLO 205, 72 h), less than 5 µM.

For the molecule `Cc1cc(-c2cc(Cl)ccc2OCCn2c(C)nc3c(c2=O)C[C@@H](N2CCO[C@H](CC(F)(F)F)C2)CC3)c2scc(C(=O)O)c2n1` (single isomer, unassigned) [Compound 526], the concentration for half-maximal inhibition (IC50) was less than 0.1 µM at human eIF4E protein and less than 5 µM in test [1] (Homo sapiens, COLO 205, 72 h).

Consider `Cc1cc(-c2cc(Cl)ccc2OCCn2c(C)nc3c(c2=O)CC(N2CCC4(CC2)CNCCO4)CC3)c2scc(C(=O)O)c2n1` (single isomer, unassigned) [Compound 527], for which the 50% inhibitory concentration (IC50) at human eIF4E protein was less than 0.1 µM; in test [1] (Homo sapiens, COLO 205, 72 h) it was greater than 20 µM.

Regarding `Cc1cc(-c2cc(Cl)ccc2OCCn2c(C)nc3c(c2=O)CC(N2CCC4(CC2)CNCCO4)CC3)c2scc(C(=O)O)c2n1` (single isomer, unassigned) [Compound 528], the IC50 on human eIF4E protein was less than 0.1 µM; in test [1], greater than 20 µM.

As for `Cc1cc(-c2cc(Cl)ccc2OCCn2c(C)nc3c(c2=O)CC(N2CCC4(CC2)CN(CC(F)(F)F)CC4(F)F)CC3)c2scc(C(=O)O)c2n1` (single isomer, unassigned) [Compound 529], the IC50 at human eIF4E protein is less than 0.1 µM; in test [1] (Homo sapiens, COLO 205, 72 h), less than 5 µM.

As for `Cc1cc(-c2cc(Cl)ccc2OCCn2c(C)nc3c(c2=O)CC(C)(N2CCC(C(F)(F)F)CC2)CC3)c2scc(C(=O)O)c2n1` (single isomer, unassigned) [Compound 530], the IC50 on human eIF4E protein was less than 0.1 µM; in test [1] (Homo sapiens, COLO 205, 72 h), less than 5 µM.

On to `Cc1cc(-c2cc(Cl)ccc2OCCn2c(C)nc3c(c2=O)CC(C)(N2CCC(C(F)(F)F)CC2)CC3)c2scc(C(=O)O)c2n1` (single isomer, unassigned) [Compound 531], for which the half-inhibitory concentration (IC50) on human eIF4E protein was less than 0.1 µM; in test [1] it was less than 5 µM.

`Cc1cc(-c2cc(Cl)ccc2OCCn2c(C)nc3c(c2=O)C[C@H](N2Cc4cc(F)c(F)cc4C2)CC3)c2scc(C(=O)O)c2n1` (single isomer, unassigned) [Compound 532]: the IC50 was less than 0.1 µM at human eIF4E protein and less than 5 µM in test [1] (Homo sapiens, COLO 205, 72 h).

`Cc1cc(-c2cc(Cl)ccc2OCCn2c(C)nc3c(c2=O)C[C@@H](N2Cc4cc(F)c(F)cc4C2)CC3)c2scc(C(=O)O)c2n1` (single isomer, unassigned) [Compound 533]: the IC50 on human eIF4E protein is less than 0.1 µM; in test [1] (Homo sapiens, COLO 205, 72 h) it was less than 5 µM.

With `Cc1nc2c(c(=O)n1CC#Cc1ccc(Cl)cc1-c1ccnc3c(C(=O)O)csc13)CC(N1CCC(OC(F)(F)F)CC1)CC2` (single isomer, unassigned) [Compound 534], the half-maximal inhibitory concentration (IC50) is less than 0.1 µM on human eIF4E protein and less than 5 µM in test [1] (Homo sapiens, COLO 205, 72 h).

`Cc1nc2c(c(=O)n1CC#Cc1ccc(Cl)cc1-c1ccnc3c(C(=O)O)csc13)CC(N1CCC(OC(F)(F)F)CC1)CC2` (single isomer, unassigned) [Compound 535]: the IC50 at human eIF4E protein was less than 0.1 µM; in test [1], less than 5 µM.

For `Cc1nc2c(c(=O)n1CC#Cc1ccc(Cl)cc1-c1ccnc3c(C(=O)O)csc13)C[C@@H](N1CCC[C@]3(C1)CC3(F)F)CC2` (single isomer, unassigned) [Compound 537, 7-(5-chloro-2-(3-(6-(1,1-difluoro-5-azaspiro[2.5]octan-5-yl)-2-methyl-4-oxo-5,6,7,8-tetrahydroquinazolin-3(4H)-yl)prop-1-yn-1-yl)phenyl)thieno[3,2-b]pyridine-3-carboxylic acid], the IC50 was less than 0.1 µM on human eIF4E protein and 5 to 20 µM in test [1] (Homo sapiens, COLO 205, 72 h).
